This note sets out measurements from patent publication US6489485B2, “Para-amine substituted phenylamide glucokinase activators” (Hoffmann-La Roche Inc., priority 2000, dated 2002).

In turn, `O=C(Nc1ccc(C(CC2CCCC2)C(=O)Nc2nccs2)cc1)c1ccccc1` (stereo not drawn) [Example 1] came in with a melting point of 285 to 290 °C.

For `O=C(Cc1cccs1)Nc1ccc(C(CC2CCCC2)C(=O)Nc2nccs2)cc1` (stereo not drawn) [Example 2, 3-Cyclopentyl-N-thiazol-2-yl-2-[4-(2-thiophen-2-yl-acetylamino)-phenyl]-propionamide], the melting point is 220 to 221 °C. For `O=C(Nc1nccs1)C(CC1CCCC1)c1ccc(NS(=O)(=O)c2ccc([N+](=O)[O-])cc2)cc1` (stereo not drawn) [Example 3, 3-Cyclopentyl-2-[4-(4-nitro-benzenesulfonylamino)-phenyl]-N-thiazol-2-yl-propionamide] the value was 120 to 125 °C; for `O=C(Nc1ccc(C(CC2CCCC2)C(=O)Nc2nccs2)cc1)c1ccncc1` (stereo not drawn) [Example 4, N-{4-[2-Cyclopentyl-1-(thiazol-2-ylcarbamoyl)-ethyl]-phenyl}-isonicotinamide], 225 to 230 °C; for `O=C(Nc1ccc(C(CC2CCCC2)C(=O)Nc2nccs2)cc1)c1ccc([N+](=O)[O-])cc1` (stereo not drawn) [Example 5, N-{4-[2-Cyclopentyl-1-(thiazol-2-ylcarbamoyl)-ethyl]-phenyl}-4-nitro-benzamide], 236 to 238 °C. For `COC(=O)C(=O)Nc1ccc(C(CC2CCCC2)C(=O)Nc2nccs2)cc1` (stereo not drawn) [Example 6, N-{4-[2-Cyclopentyl-1-(thiazol-2-ylcarbamoyl)-ethyl]-phenyl}-oxalamic acid methyl ester] the value was 95 to 98 °C; for `CC(=O)OCC(=O)Nc1ccc(C(CC2CCCC2)C(=O)Nc2nccs2)cc1` (stereo not drawn) [Example 7, Acetic acid {4-[2-cyclopentyl-1-(thiazol-2-ylcarbamoyl)-ethyl]-phenylcarbamoyl}-methyl ester], 90 to 95 °C.

Compound `CN(C)S(=O)(=O)Nc1ccc(C(CC2CCCC2)C(=O)Nc2nccs2)cc1` (stereo not drawn) [Example 8, N-{4-[2-Cyclopentyl-1-(thiazol-2-ylcarbamoyl)-ethyl]-phenyl}-dimethylsulfamide] registered a melting point of 110 to 112 °C. For `O=C(Nc1ccc(C(CC2CCCC2)C(=O)Nc2nccs2)cc1)c1cccnc1` (stereo not drawn) [Example 9, N-{4-[2-Cyclopentyl-1-(thiazol-2-ylcarbamoyl)-ethyl]-phenyl}-nicotinamide] the value was 240 to 242 °C; for `CCOC(=O)c1csc(NC(=O)C(CC2CCCC2)c2ccc(NC(=O)c3cccnc3)cc2)n1` (stereo not drawn) [Example 10, 2-(3-Cyclopentyl-2-{4-[(pyridine-3-carbonyl)-amino]-phenyl}propionylamino)-thiazole-4-carboxylic acid ethyl ester], 222 to 223 °C; for `CCOC(=O)Cc1csc(NC(=O)C(CC2CCCC2)c2ccc(NC(=O)c3cccnc3)cc2)n1` (stereo not drawn) [Example 11, [2-(3-Cyclopentyl-2-{4-[(pyridine-3-carbonyl)-amino]-phenyl}-propionylamino)-thiazol-4-yl]-acetic acid ethyl ester], 195 to 200 °C. For the compound `CS(=O)(=O)Nc1ccc(C(CC2CCCC2)C(=O)Nc2nccs2)cc1` (stereo not drawn) [Example 12, 3-Cyclopentyl-2-(4-methanesulfonylamino-phenyl)-N-thiazol-2-yl-propionamide], the melting point is 85 to 90 °C. Compound `O=C(Nc1nccs1)C(CC1CCCC1)c1ccc(NS(=O)(=O)C(F)(F)F)cc1` (stereo not drawn) [Example 13, 3-Cyclopentyl-N-thiazol-2-yl-2-(4-trifluoromethanesulfonylamino-phenyl)-propionamide] gave a melting point of 70 to 74 °C.

With `O=C(Nc1ccc(C(CC2CCCC2)C(=O)Nc2ccccn2)cc1)c1cccnc1` (stereo not drawn) [Example 15, N-{4-[2-Cyclopentyl-1-(pyridin-2-ylcarbamoyl)-ethyl]-phenyl}-nicotinamide], the melting point was 160 to 163 °C. `COC(=O)c1ccc(NC(=O)C(CC2CCCC2)c2ccc(NC(=O)c3cccnc3)cc2)nc1` (stereo not drawn) [Example 16, 6-(3-Cyclopentyl-2-{4-[(pyridine-3-carbonyl)-amino]-phenyl}-propionylamino)-nicotinic acid methyl ester] came in with a melting point of 110 to 111 °C.
